Data set [1] addresses T1, oxy-Mb (Homo sapiens, UniProt P02144).
T1 sequence (P02144 1-154): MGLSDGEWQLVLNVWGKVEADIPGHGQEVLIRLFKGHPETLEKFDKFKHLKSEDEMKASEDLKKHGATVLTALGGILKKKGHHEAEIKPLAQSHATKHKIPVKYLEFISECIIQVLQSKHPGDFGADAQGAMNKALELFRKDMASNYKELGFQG
As to the kind of experiment: Oxidation of purified oxy-Mb to met-Mb (UV-vis). Type of data set: biochemical. The conditions noted are these: 10 μM agent, oxy-Mb 40 μM; for oxy-Mb oxidation (met-Mb generation): 3 h incubation, 20 °C; for oxy-Mb oxidation (in words): 1–3 h/20 °C. The text has this: As such, it was important to examine the effect of the Dp4e4mT complexes on oxy-Hb and oxy-Mb oxidation (Fig. 6 and 7). Comparisons were made to three controls, namely DFO, Dp44mT, and DpC, as well as their Fe(III) complexes. […] In contrast, the Fe(III) complexes of Dp44mT and DpC were positive controls, as they induce oxidation of oxy-Mb.[28,39,42]
Fig. 6 (A and B) Investigation of the effects of Dp4e4mT and its Fe(III), Co(III), Ni(II), Cu(II), Zn(II), Ga(III), and Pd(II) complexes versus the positive controls DFO, Dp44mT, DpC and their Fe(III) complexes (10 μM) on met-Mb generation (% zero time) after an incubation of 1–3 h/20 °C with purified oxy-Mb (40 μM). Results are mean ± SD (3 experiments).
Spectroscopic Examination of Met-Mb and Met-Hb Formation from Oxy-Mb and Oxy- […]
Oxy-Mb and oxy-Hb solutions were prepared following established protocols.8, 17 In brief, solutions of reduced Mb and Hb in PBS (pH 7.2) were prepared by adding 1.2 mL of Na2S2O4 (12 mM) to 38 mL of met-Mb and met-Hb solution (40 μM). 17 Subsequently, oxy-Mb and oxy-Hb were generated by gently passing 150 mL of oxygen (from an air-filled syringe) through the solution containing reduced Mb and Hb, effectively eliminating any residual Na2S2O4. Following this, the oxy-Mb and oxy-Hb solutions were passed through a PD-10 column prepacked with 8.3 mL of Sephadex G-25 and equilibrated with PBS (pH 7.2). 17 In experiments examining the activity of the agents, all complexes were dissolved in 1,2-propanediol, then diluted to 10 µM in PBS (pH 7.2). The experiments were conducted over incubations of 0 to 3 h with the agents. UV-Vis spectra covering the range of 300 to 700 nm were recorded at a temperature of 20°C using a Shimadzu UV−Vis spectrophotometer (UV-1800; Shimadzu, Kyoto, Japan). Concentrations of met-Mb and met-Hb, as well as reduced-Mb and reduced-Hb, were determined at 409 nm and 435 nm, respectively. Concentrations of oxy-Mb and oxy-Hb were determined at 544 nm and 582 nm, respectively. 17

Data set [2] has as its target T2, oxy-Hb in intact human erythrocytes (Homo sapiens, UniProt P68871+P69905).
T2 construct: Physiologically, oxy-Hb is found in erythrocytes; endogenous in cells; host or cells: intact human erythrocytes from fresh blood of healthy donors
The data set can be described thus: Oxidation of oxy-Hb in intact human erythrocytes. Type of data set: cell-based. Conditions: 10 μM, 3 h/37 °C; for oxy-Hb oxidation to met-Hb in erythrocytes: control 0.5%. The method, then:
Fig. 7 (A and B) Investigation of the effects of Dp4e4mT and its Fe(III), Co(III), Ni(II), Cu(II), Zn(II), Ga(III), and Pd(II) complexes versus DFO, Dp44mT, DpC and their Fe(III) complexes (10 μM) on met-Hb generation (% zero time) after an incubation of 1–3 h/20 °C with purified oxy-Hb (40 μM). (C) Investigation of the effects of Dp4e4mT and its Fe(III), Co(III), Ni(II), Cu(II), Zn(II), Ga(III), or Pd(II) complexes relative to the positive controls DFO, Dp44mT, DpC, and their Fe(III) complexes (10 μM) on oxy-Hb oxidation in intact human erythrocytes after a 3 h/37 °C incubation. Results are mean ± SD (3 experiments).
Physiologically, oxy-Hb is found in erythrocytes, and in the current investigation, the ligands and complexes (10 μM) were incubated with intact human erythrocytes for 3 h/37 °C to assess their effects on oxy-Hb oxidation (Fig. 7C). As expected from our previous studies,[28,39] […]
In experiments examining the activity of the agents, all complexes were dissolved in 1,2-propanediol, then diluted to 10 µM in PBS (pH 7.2). […]
1800; Shimadzu, Kyoto, Japan). Concentrations of met-Mb and met-Hb, as well as reduced-Mb and reduced-Hb, were determined at 409 nm and 435 nm, respectively. Concentrations of oxy-Mb and oxy-Hb were determined at 544 nm and 582 nm, respectively. 17 Oxidation of Oxy-Hb in Human Erythrocytes
Oxidation of oxy-Hb in human erythrocytes was performed by standard methods using fresh blood from healthy donors after collection in Vacutainer® collection tubes (BD, Plymouth, UK).8 Erythrocytes centrifuged (480 xg/5 min/4°C) and then washed in HBSS, and subsequently resuspended in this buffer. Incubation of the erythrocytes (15% hematocrit) in the absence or presence of the agents (10 μM) was performed for 3 h/37°C. The erythrocytes were […]

Data set [3] can be described thus: Cyclic voltammetry (redox potentials). Type of data set: physicochemical. The conditions noted are these: 1 mM in MeCN/H2O 7 : 3 (v/v) + 0.1 M Et4NClO4, sweep rate 100 mV s^−1. The text has this:
The redox potentials of Fe(III)- and Cu(II)-thiosemicarbazone complexes have been extensively studied and are important for understanding intracellular redox activity and ROS generation.[23,27,28,42] Considering this, the electrochemical properties of [Fe(Dp44mT)2]^+, [Fe(DpC)2]^+, [Fe(Dp4e4mT)2]^+, [Co(Dp4e4mT)2]^+, [Ni(Dp4e4mT)2], [Cu(Dp4e4mT)Cl], [Ga(Dp4e4mT)2]^+, and [Pd(Dp4e4mT)Cl] were investigated with cyclic voltammetry in MeCN : H2O (70 : 30 v/v; Fig. 4A and B). This solvent system was implemented to provide sufficient solubility and because it has been used by our laboratories previously to measure potentials of thiosemicarbazone complexes enabling effective comparison.[28,45,57–59]
Fig. 4 Cyclic voltammograms of: (A) [Fe(Dp44mT)2]^+, [Fe(DpC)2]^+, and [Fe(Dp4e4mT)2]^+. (B) [Co(Dp4e4mT)2]^+, [Ni(Dp4e4mT)2], [Cu(Dp4e4mT)Cl], [Ga(Dp4e4mT)2]^+, and [Pd(Dp4e4mT)Cl] (1 mM in MeCN/H2O 7 : 3 (v/v) + 0.1 M Et4NClO4) at a sweep rate of 100 mV s^−1. The voltammograms were recorded using a glassy carbon working electrode versus a […] (NHE). […]
Cyclic voltammograms were acquired for the Fe(III), Co(III), Ni(II), Cu(II), Ga(III), and Pd(II) complexes of Dp4e4mT utilizing a BAS100B/W potentiostat, equipped with an aqueous Ag/AgCl reference electrode, a glassy carbon working electrode, and a Pt wire auxiliary […]
electrode. […]

The mark [4] stands for this setting: listed as Dp4e4mT Ga(III) complex.
Where [5] appears, read: listed as Dp4e4mT Zn(II) complex.
Setting [6] is: listed as Dp4e4mT Co(III) complex.
[7] abbreviates: listed as Dp4e4mT Pd(II) complex.

These results are taken from paper PMC10793205, “Differential transmetallation of complexes of the anti-cancer thiosemicarbazone, Dp4e4mT: effects on anti-proliferative efficacy, redox activity, oxy-myoglobin and oxy-hemoglobin oxidation” (Chemical Science, 2023).

“Also recorded” adds a separate entry of the source.

T2 sequence (P69905 2-142 limits assumed): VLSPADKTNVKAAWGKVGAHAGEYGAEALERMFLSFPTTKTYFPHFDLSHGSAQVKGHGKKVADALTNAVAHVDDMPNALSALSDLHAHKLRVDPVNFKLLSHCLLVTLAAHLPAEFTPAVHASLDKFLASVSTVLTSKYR
T2 sequence (P68871 2-147 limits assumed): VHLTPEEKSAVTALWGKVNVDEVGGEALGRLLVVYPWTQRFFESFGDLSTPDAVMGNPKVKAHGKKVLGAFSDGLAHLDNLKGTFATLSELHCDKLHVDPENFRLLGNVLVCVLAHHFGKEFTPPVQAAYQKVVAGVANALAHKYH

Regarding `CN(C)C(=S)NN=C(c1ccccn1)c1ccccn1` [Dp44mT, di-2-pyridylketone 4,4-dimethyl-3-thiosemicarbazone, reference compound], in data set [1], the “oxy-Mb oxidation (met-Mb generation)” value was 129 % of the control. Moreover, the “oxy-Hb oxidation to met-Hb in erythrocytes” value (from here on “oxy-Hb oxidation to met-Hb”) in data set [2] is given as 2.3 % of the total.
Take `CCN(C)C([S-])=NN=C(c1ccccn1)c1ccccn1.CCN(C)C([S-])=NN=C(c1ccccn1)c1ccccn1.[Ni+2]` [[Ni(Dp4e4mT)2]]: the “Redox potential (mV vs. NHE)” value in data set [3] is on record as “+647 mV vs. NHE”. Moreover, the “oxy-Mb oxidation (in words)” value in data set [1] is “low activity; also recorded: minimal impact”. Besides, the “oxy-Hb oxidation in erythrocytes versus the control (in words)” value in data set [2] is recorded as “negligible effects on oxy-Hb oxidation”; in data set [2] (listed as Dp4e4mT Ni(II) complex), “no (p > 0.05) significant effect on oxy-Hb oxidation”.
As for `CCN(C)C([S-])=NN=C(c1ccccn1)c1ccccn1.CCN(C)C([S-])=NN=C(c1ccccn1)c1ccccn1.[Ga+3]` [[Ga(Dp4e4mT)2]^+], the “Redox potential (mV vs. NHE)” value in data set [3] (setting [4]) is on record as −533 mV vs. NHE; in data set [3] (listed as [Ga(Dp4e4mT)2]^+/0), “–533 (irreversible) mV vs. NHE”. For the same compound, the “oxy-Mb oxidation (in words)” value in data set [1] was “significantly increased oxy-Mb and oxy-Hb oxidation”; in data set [1] (setting [4]), “induced marked oxy-Mb oxidation”. In data set [2], the “oxy-Hb oxidation in erythrocytes versus the control (in words)” value was “slight effect”. Further, the “oxy-Hb oxidation to met-Hb” value in data set [2] was 1.3 % of the total.
With `CCN(C)C([S-])=NN=C(c1ccccn1)c1ccccn1.CCN(C)C([S-])=NN=C(c1ccccn1)c1ccccn1.[Fe+3]` [[Fe(Dp4e4mT)2]^+], the “Redox potential (mV vs. NHE)” value in data set [3] is “+70 mV vs. NHE”. Besides, the “oxy-Mb oxidation (met-Mb generation)” value in data set [1] is 213 % of the control. Besides, in data set [2], the “oxy-Hb oxidation to met-Hb” value is 4.8 % of the total.
Regarding `CN(C(=S)NN=C(c1ccccn1)c1ccccn1)C1CCCCC1` [DpC, di-2-pyridylketone 4-cyclohexyl-4-methyl-3-thiosemicarbazone, reference compound], in data set [2], the “oxy-Hb oxidation in erythrocytes versus the control (in words)” value was “did not induce any significant (p > 0.05) increase in oxy-Hb oxidation”.
In the case of `CCN(C)C(=S)NN=C(c1ccccn1)c1ccccn1` [Dp4e4mT, di-2-pyridylketone-4-ethyl-4-methyl-3-thiosemicarbazone], the “oxy-Mb oxidation (met-Mb generation)” value in data set [1] is listed as 140 % of the control. Further, the “oxy-Hb oxidation to met-Hb” value in data set [2] is on record as 1.9 % of the total.
Take `CCN(C)C([S-])=NN=C(c1ccccn1)c1ccccn1.CCN(C)C([S-])=NN=C(c1ccccn1)c1ccccn1.[Zn+2]` [[Zn(Dp4e4mT)2]]: the “oxy-Mb oxidation (in words)” value in data set [1] was “significantly increased oxy-Mb and oxy-Hb oxidation”; in data set [1] (setting [5]) it was “induced marked oxy-Mb oxidation”. Moreover, the “oxy-Hb oxidation in erythrocytes versus the control (in words)” value in data set [2] is “negligible effects on oxy-Hb oxidation”; in data set [2] (setting [5]) it was “no (p > 0.05) significant effect on oxy-Hb oxidation”.
Take `CCN(C)C([S-])=NN=C(c1ccccn1)c1ccccn1.CCN(C)C([S-])=NN=C(c1ccccn1)c1ccccn1.[Co+3]` [[Co(Dp4e4mT)2]^+]: in data set [3], the “Redox potential (mV vs. NHE)” value is on record as “–642 mV vs. NHE”. Besides, the figures for the “oxy-Mb oxidation (in words)” value in data set [1] and in data set [1] (setting [6]) were “minimal impact” and “no appreciable oxidation of oxy-Mb”, respectively. Also, the “oxy-Hb oxidation in erythrocytes versus the control (in words)” value in data set [2] is “negligible effects on oxy-Hb oxidation”; in data set [2] (setting [6]), “no (p > 0.05) significant effect on oxy-Hb oxidation”.
With `CCN(C)C([S-])=NN=C(c1ccccn1)c1ccccn1.[Cl-].[Cu+2]` [[Cu(Dp4e4mT)Cl]], the “Redox potential (mV vs. NHE)” value in data set [3] is given as −151 mV vs. NHE; in data set [3] (listed as [Cu(Dp4e4mT)(Cl)]^±), “–151 mV vs. NHE”. Also, the “oxy-Mb oxidation (in words)” value in data set [1] is recorded as “did not significantly lead to oxidation of oxy-Mb”. Moreover, in data set [2], the “oxy-Hb oxidation in erythrocytes versus the control (in words)” value is recorded as “negligible effects on oxy-Hb oxidation”.
For the compound `CCN(C)C([S-])=NN=C(c1ccccn1)c1ccccn1.[Cl-].[Pd+2]` [[Pd(Dp4e4mT)Cl]], the “Redox potential (mV vs. NHE)” value is recorded as “–626 (irreversible) mV vs. NHE” in data set [3] and −626 mV vs. NHE in data set [3] (setting [7]). Moreover, the “oxy-Mb oxidation (in words)” value was “minimal impact” in data set [1] and “no appreciable oxidation of oxy-Mb” in data set [1] (setting [7]). The figures for the “oxy-Hb oxidation in erythrocytes versus the control (in words)” value in data set [2] and in data set [2] (setting [7]) were “negligible effects on oxy-Hb oxidation” and “no (p > 0.05) significant effect on oxy-Hb oxidation”, respectively.
